Here are results for 1 compound from patent US20020032214A1, “Pharmaceutical composition comprising a compound having anti-xa activity and a platelet aggregation antagonist compound” (priority 1996, published 2002).

The nature of this series: Template bleeding time in the canine model of unstable angina. The series is classed as in vivo, Mongrel dogs. As to conditions: high-dose of the platelet aggregation antagonist compound, i.v., dogs. As for the experimental part: Mongrel dogs of either sex (15-21 kg) are anesthetized with sodium pentobarbital (30 mg/kg, i.v., with supplements given as needed), intubated, and ventilated using a Harvard respirator (Harvard Apparatus. S. Natick, Mass.). A tri-lumen catheter (SAFEDWELLplus, Becton Dickinson, Sandy, Utah) is placed in the right femoral vein for the administration of test agents and supplemental anesthesia. The right femoral artery is cannulated for measurement of arterial blood pressure and for obtaining blood samples.
Thirty dogs are assigned to one of six adjunctive treatment groups. […]
After consistent CFRs are established for at least 20 minutes, compounds are administered as described above and blood flow is monitored during the one hour infusion period. […] Mean arterial blood pressure, heart rate and EKG are recorded for the duration of the protocol (Grass polygraph, Model 7D, Grass Instruments, Mass.).
Template bleeding time measurements are obtained at the same time points as the blood samples, as mentioned previously. Template bleeding time is measured after a uniform incision is made on the mucous membrane of the inner upper lip with a Surgicutt® automated incision device (ITC, Edison, N.J.). […] Template bleeding time is measured from the moment of the incision until the blood no longer stained the blotting paper. […]

`CCCCS(=O)(=O)N[C@@H](Cc1ccc(OCCCCC2CCNCC2)cc1)C(=O)O` [BSPBPA, N-(n-butylsulfonyl)-4-(piperidin-4-ylbutyloxy)-L-phenylalanine]: the “increase in template bleeding time” value is recorded as greater than 5 fold.
